These results are taken from PubChem BioAssay (NCI).

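Following 48 hours of exposure in 96-well plates, responses at five concentrations were used to interpolate endpoints linearly. Definition used: TGI = concentration required for complete inhibition of growth.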

The test system of the assay is SN12K1 renal. Put plainly: NCI tumour cell line growth inhibition, 48 h.

In turn, `COC(=O)NC1C(C)OC(OC2C/C=C(/C)C3C=CC4C(OC5CC(OC6CCC(OC7CC(O)C(OC8CCC(O)C(C)O8)C(C)O7)C(C)O6)C(OC(C)=O)C(C)O5)C(C)CC(C)C4C3(C)/C(O)=C3/C(=O)OC4(CC(C=O)=CC(O)C4/C=C\2C)C3=O)CC1(C)[N+](=O)[O-]` (stereo unspecified) displayed a TGI of 753 nM.
